Assay: excess molar enthalpy (molar enthalpy of mixing); xn = mol fraction of the nth substance listed
Conditions: 308.15 K, 12400 kPa, Fluid (supercritical or subcritical phases)

CCCCCC [hexane] + CO
Conditions | excess molar enthalpy [kcal/mol]
x2 = 0.032 | 0.0609
x2 = 0.062 | 0.081
x2 = 0.118 | 0.0966
x2 = 0.145 | 0.113
x2 = 0.17 | 0.117
x2 = 0.218 | 0.125
x2 = 0.249 | 0.129
x2 = 0.803 | 0.113
x2 = 0.828 | 0.107
x2 = 0.851 | 0.0978
x2 = 0.872 | 0.0877
x2 = 0.903 | 0.0727
x2 = 0.928 | 0.0593
x2 = 0.959 | 0.0347

CCCCCCCCO [octan-1-ol] + CCCCCC
Conditions | excess molar enthalpy [kcal/mol]
x1 = 0.033 | 0.0741
x1 = 0.05 | 0.086
x1 = 0.101 | 0.102
x1 = 0.153 | 0.111
x1 = 0.206 | 0.117
x1 = 0.3 | 0.122
x1 = 0.397 | 0.12
x1 = 0.447 | 0.115
x1 = 0.503 | 0.109
x1 = 0.602 | 0.0949
x1 = 0.653 | 0.0822
x1 = 0.696 | 0.0715
x1 = 0.749 | 0.059
x1 = 0.789 | 0.0483
x1 = 0.858 | 0.0313
x1 = 0.904 | 0.0163
x1 = 0.928 | 0.0148
x1 = 0.952 | 0.00526

— the NIST ThermoML archive (doi:10.1016/j.fluid.2005.12.029)
